Source: patent US8501755B2, “Tetrahydropyridothienopyrimidine compounds and methods of use thereof” (Bayer Intellectual Property GmbH, priority 2006, dated 2013)

Legend:
Type in all cases: cell-based
[1] = tested on: N87; test: In vitro tumor cell proliferation assay (Cell Titer-Glo) in N87 cells; details: N87 human gastric carcinoma overexpressing HER2 and HER1; 72 hours exposure; read-out: IC50, activities in N87 cell lines
Summary of the method: (§1)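 Viability after 72 h drug exposure at 37 °C was read as CellTiter-Glo ATP luminescence, giving IC50. Cells (2.5×10^3/well, RPMI + 10% FBS) were compound-treated one day post-seeding, 0.1% DMSO final: A431 overexpresses HER1, N87 overexpresses HER2 and HER1.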

[2] = tested on: H1975 cells; test: In vitro tumor cell proliferation assay (Cell Titer-Glo) in H1975 cells; details: NCI-H1975; H1975 human NSCLC expressing mutant HER1 (L858R,T790M); 72 hours exposure; read-out: IC50, activities in H 1975 cell lines
Summary of the method: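 After 72 h compound exposure at 37° C (top 10 uM down to 64 pM, 0.1% DMSO), viability of EGFR L858R/T790M-mutant H1975 cells was read as ATP luminescence.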

[3] = tested on: A431 cells; test: In vitro tumor cell proliferation assay (Cell Titer-Glo) in A431 cells; details: Homo sapiens, A-431, 72 h, A431 human epidermoid carcinoma overexpressing HER1; 72 hours exposure; read-out: IC50, activities in A431 cell lines
Summary of the method: as §1

IC50 [1] [µM]	IC50 [2] [µM]	IC50 [3] [µM]	SMILES
< 0.2	1 to 10	0.2 to 1	O=C(/C=C/CN1CCOCC1)N1CCc2c(sc3ncnc(Nc4ccc5c(cnn5Cc5cccc(F)c5)c4)c23)C1 [Example 102, N-[1-(3-fluorobenzyl)-1H-indazol-5-yl]-7-[(2E)-4-morpholin-4-ylbut-2-enoyl]-5,6,7,8-tetrahydropyrido [4′,3′:4,5]thieno[2,3-d]pyrimidin-4-amine]
< 0.2	0.2 to 1	0.2 to 1	O=C(/C=C/CN1CCCCC1)N1CCc2c(sc3ncnc(Nc4ccc5c(cnn5Cc5ccccc5)c4)c23)C1 [Example 104, N-(1-benzyl-1H-indazol-5-yl)-7-[(2E)-4-piperidin-1-ylbut-2-enoyl]-5,6,7,8-tetrahydropyrido [4′,3′:4,5]thieno[2,3-d]pyrimidin-4-amine]
< 0.2	< 0.2	< 0.2	CC(C)N(C)C/C=C/C(=O)N1CCc2c(sc3ncnc(Nc4ccc5c(cnn5Cc5ccccc5)c4)c23)C1 [Example 107, N-(1-benzyl-1H-indazol-5-yl)-7-{(2E)-4-[isopropyl(methyl)amino]but-2-enoyl}-5,6,7,8-tetrahydropyrido [4′,3′:4,5]thieno[2,3-d]pyrimidin-4-amine]
< 0.2	0.2 to 1	< 0.2	O=C(/C=C/CN1CCOCC1)N1CCc2c(sc3ncnc(Nc4ccc5c(ccn5Cc5cccc(F)c5)c4)c23)C1 [Example 108, N-[1-(3-fluorobenzyl)-1H-indol-5-yl]-7-[(2E)-4-morpholin-4-ylbut-2-enoyl]-5,6,7,8-tetrahydropyrido [4′,3′:4,5]thieno[2,3-d]pyrimidin-4-amine]
< 0.2	0.2 to 1	0.2 to 1	CN(C)C/C=C/C(=O)N1CCc2c(sc3ncnc(Nc4ccc5c(cnn5Cc5ccccn5)c4)c23)C1 [Example 109, 7-[(2E)-4-(dimethylamino)but-2-enoyl]-N-[1-(pyridin-2-ylmethyl)-1H-indazol-5-yl]-5,6,7,8-tetrahydropyrido [4′,3′:4,5]thieno[2,3-d]pyrimidin-4-amine]
< 0.2	< 0.2	< 0.2	O=C(/C=C/CN1CCCCC1)N1CCc2c(sc3ncnc(Nc4ccc5c(ccn5Cc5ccccn5)c4)c23)C1 [Example 114, 7-[(2E)-4-piperidin-1-ylbut-2-enoyl]-N-[1-(pyridin-2-ylmethyl)-1H-indol-5-yl]-5,6,7,8-tetrahydropyrido [4′,3′:4,5]thieno[2,3-d]pyrimidin-4-amine]
< 0.2	< 0.2	< 0.2	CCN(C)C/C=C/C(=O)N1CCc2c(sc3ncnc(Nc4ccc5c(cnn5Cc5cccc(F)c5)c4)c23)C1 [Example 115, 7-{(2E)-4-[ethyl(methyl)amino]but-2-enoyl}-N-[1-(3-fluorobenzyl)-1H-indazol-5-yl]-5,6,7,8-tetrahydropyrido [4′,3′:4,5]thieno[2,3-d]pyrimidin-4-amine]
< 0.2	0.2 to 1	0.2 to 1	CC(C)N(C)C/C=C/C(=O)N1CCc2c(sc3ncnc(Nc4ccc5c(cnn5Cc5ccccn5)c4)c23)C1 [Example 116, 7-{(2E)-4-[isopropyl(methyl)amino]but-2-enoyl}-N-[1-(pyridin-2-ylmethyl)-1H-indazol-5-yl]-5,6,7,8-tetrahydropyrido [4′,3′:4,5] thieno[2,3-d]pyrimidin-4-amine]
< 0.2	< 0.2	0.2 to 1	CC(C)N(C)C/C=C/C(=O)N1CCc2c(sc3ncnc(Nc4ccc5c(ccn5Cc5ccccn5)c4)c23)C1 [Example 117, 7-{(2E)-4-[isopropyl(methyl)amino]but-2-enoyl}-N-[1-(pyridin-2-ylmethyl)-1H-indol-5-yl]-5,6,7,8-tetrahydropyrido [4′,3′:4,5]thieno[2,3-d]pyrimidin-4-amine]

Second part, the compound before the results:

SMILES	IC50 [1] [µM]	IC50 [2] [µM]	IC50 [3] [µM]
O=C(/C=C/CN1CCOCC1)N1CCc2c(sc3ncnc(Nc4ccc5c(cnn5Cc5ccccc5)c4)c23)C1 [Example 103, N-(1-benzyl-1H-indazol-5-yl)-7-[(2E)-4-morpholin-4-ylbut-2-enoyl]-5,6,7,8-tetrahydropyrido [4′,3′:4,5]thieno[2,3-d]pyrimidin-4-amine]	< 0.2	1 to 10	0.2 to 1
O=C(/C=C/CN1CCOCC1)N1CCc2c(sc3ncnc(Nc4ccc5c(ccn5Cc5ccccc5)c4)c23)C1 [Example 105, N-(1-benzyl-1H-indol-5-yl)-7-[(2E)-4-morpholin-4-ylbut-2-enoyl]-5,6,7,8-tetrahydropyrido [4′,3′:4,5]thieno[2,3-d]pyrimidin-4-amine]	< 0.2	0.2 to 1	< 0.2
O=C(/C=C/CN1CCCCC1)N1CCc2c(sc3ncnc(Nc4ccc5c(ccn5Cc5cccc(F)c5)c4)c23)C1 [Example 106, N-[1-(3-fluorobenzyl)-1H-indol-5-yl)-7-[(2E)-4-piperidin-1-ylbut-2-enoyl]-5,6,7,8-tetrahydropyrido [4′,3′:4,5]thieno[2,3-d]pyrimidin-4-amine]	< 0.2	0.2 to 1	< 0.2
CCN(CC)C/C=C/C(=O)N1CCc2c(sc3ncnc(Nc4ccc5c(cnn5Cc5ccccn5)c4)c23)C1 [Example 111, 7-[(2E)-4-(diethylamino)but-2-enoyl]-N-[1-(pyridin-2-ylmethyl)-1H-indazol-5-yl]-5,6,7,8-tetrahydropyrido [4′,3′:4,5]thieno[2,3-d]pyrimidin-4-amine]	< 0.2	0.2 to 1	0.2 to 1
O=C(/C=C/CN1CCCCC1)N1CCc2c(sc3ncnc(Nc4ccc5c(cnn5Cc5ccccn5)c4)c23)C1 [Example 112, 7-[(2E)-4-piperidin-1-ylbut-2-enoy]-N-[1-(pyridin-2-ylmethyl)-1H-indazol-5-yl]-5,6,7,8-tetrahydropyrido [4′,3′:4,5]thieno[2,3-d]pyrimidin-4-amine]	< 0.2	0.2 to 1	0.2 to 1
O=C(/C=C/CN1CCOCC1)N1CCc2c(sc3ncnc(Nc4ccc5c(cnn5Cc5ccccn5)c4)c23)C1 [Example 113, 7-[(2E)-4-morpholin-4-ylbut-2-enoyl]-N-[1-(pyridin-2-ylmethyl)-1H-indazol-5-yl]-5,6,7,8-tetrahydropyrido [4′,3′:4,5]thieno[2,3-d]pyrimidin-4-amine]	< 0.2	0.2 to 1	0.2 to 1
CC(C)N(C)C/C=C/C(=O)N1CCc2c(sc3ncnc(Nc4ccc5c(ccn5Cc5ccccc5)c4)c23)C1 [Example 118, N-(1-benzyl-1H-indol-5-yl)-7-{(2E)-4-[isopropyl(methyl)amino]but-2-enoyl}-5,6,7,8-tetrahydropyrido [4′,3′:4,5]thieno[2,3-d]pyrimidin-4-amine]	< 0.2	< 0.2	< 0.2
CCN(CC)C/C=C/C(=O)N1CCc2c(sc3ncnc(Nc4ccc5c(ccn5Cc5ccccn5)c4)c23)C1 [Example 121, 7-[(2E)-4-(diethylamino)but-2-enoyl]-N-[1-(pyridin-2-ylmethyl)-1H-indol-5-yl]-5,6,7,8-tetrahydropyrido [4′,3′:4,5]thieno[2,3-d]pyrimidin-4-amine]	< 0.2	0.2 to 1	0.2 to 1
